The values below come from patent US8487102B2, “Pyrrazolopyridine compounds as dual NK1/NK3 receptor antagonists” (Hoffmann-La Roche Inc., priority 2010, dated 2013).

Molecules are shown by their SMILES.

The target in one assay is T1, human NK1 receptor (Homo sapiens, UniProt P25103).
T1 construct: expressed in transfected cells; host or cells: CHO cells (Semliki virus expression system), membrane suspension
Put plainly: NK1 receptor binding assay, [3H]substance P displacement. The following applies: human NK1 receptors in CHO cells, [3H]substance P 0.6 nM.

Assay [1] has as its target T2, Recombinant human NK3 (hNK3) receptor (Homo sapiens, UniProt P29371).
T2 construct: expressed in transfected cells; membrane preparations of the recombinant receptor
T2 sequence (P29371 1-465): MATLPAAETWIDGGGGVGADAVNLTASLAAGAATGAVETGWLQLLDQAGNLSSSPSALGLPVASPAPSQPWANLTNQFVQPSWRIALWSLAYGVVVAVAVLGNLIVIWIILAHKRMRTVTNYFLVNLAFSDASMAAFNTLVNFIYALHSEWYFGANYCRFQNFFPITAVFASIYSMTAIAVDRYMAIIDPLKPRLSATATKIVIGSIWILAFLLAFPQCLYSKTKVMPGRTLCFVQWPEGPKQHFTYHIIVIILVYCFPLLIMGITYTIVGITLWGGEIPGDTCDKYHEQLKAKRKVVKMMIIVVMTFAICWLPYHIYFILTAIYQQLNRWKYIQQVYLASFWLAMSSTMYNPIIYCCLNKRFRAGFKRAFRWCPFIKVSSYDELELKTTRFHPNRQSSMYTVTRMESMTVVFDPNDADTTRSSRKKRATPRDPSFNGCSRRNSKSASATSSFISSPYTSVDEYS
Put plainly: NK3 receptor binding assay, [3H]SR142801 displacement. The following applies: hNK3 receptor membranes, [3H]SR142801 0.3 nM. Here is the method: Recombinant human NK3 (hNK3) receptor affinity was determined in a 96 well plate assay, using [^3H]SR142801 (final concentration 0.3 nM) to radiolabel the hNK3 receptor in the presence of 10 concentrations of competing compound or buffer. Non specific binding was determined using 10 μM SB222200. Assay buffer consisted of Tris-HCl (50 mM, pH 7.4), BSA (0.1%), MnCl2 (4 mM) and phosphoramidon (1 μM). Membrane preparations of hNK3 receptors (approximately 2.5 μg/well in a 96 well plate) were used to initiate the incubation for 90 min at room temperature. This assay was terminated by rapid filtration under vacuum through GF/C filters, presoaked for 90 min with PEI (0.3%), with 3×0.5 ml washes of ice-cold Tris buffer (50 mM, pH 7.4) containing 0.1% BSA. The radioactivity retained on the filters was measured by scintillation counting. All assays were performed in duplicate in at least two separate experiments.

The conditions of assay [2]: phase II trial, cited from earlier work.

T1 sequence (P25103 whole entry): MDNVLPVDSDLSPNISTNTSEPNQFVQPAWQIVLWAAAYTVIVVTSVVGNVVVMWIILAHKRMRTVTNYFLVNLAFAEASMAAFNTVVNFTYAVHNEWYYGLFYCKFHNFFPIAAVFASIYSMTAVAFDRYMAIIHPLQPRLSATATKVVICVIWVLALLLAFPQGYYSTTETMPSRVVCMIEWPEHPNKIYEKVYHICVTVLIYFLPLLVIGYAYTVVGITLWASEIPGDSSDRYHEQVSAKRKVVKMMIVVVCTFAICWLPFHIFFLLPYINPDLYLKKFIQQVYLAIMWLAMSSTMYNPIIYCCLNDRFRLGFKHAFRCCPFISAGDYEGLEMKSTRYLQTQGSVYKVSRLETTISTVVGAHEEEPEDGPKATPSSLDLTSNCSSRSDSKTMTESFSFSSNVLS

As to `CCn1ncc2c(-c3ccc(F)cc3Cl)c(N(C)C(=O)C(C)(C)c3cc(C(F)(F)F)cc(C(F)(F)F)c3)cnc21` [Example 19, 2-(3,5-Bis-trifluoromethyl-phenyl)-N-[4-(2-chloro-4-fluoro-phenyl)-1-ethyl-1H-pyrazolo[3,4-b]pyridin-5-yl]-N-methyl-isobutyramide], the Ki (commonly the equilibrium dissociation constant of an inhibitor or competing ligand from its target) on human NK1 receptor is 0.3 nM; in assay [1] it was 13.8 nM.
With `CCn1ncc2c(-c3ccccc3CO)c(N(C)C(=O)C(C)(C)c3cc(C(F)(F)F)cc(C(F)(F)F)c3)cnc21` [Example 20, 2-(3,5-Bis-trifluoromethyl-phenyl)-N-[1-ethyl-4-(2-hydroxymethyl-phenyl)-1H-pyrazolo[3,4-b]pyridin-5-yl]-N-methyl-isobutyramide], the figures for the Ki (on human NK1 receptor; in assay [1]) were 1.6 nM and 209 nM, respectively.
Regarding `CCn1ncc2c(-c3cscc3C)c(N(C)C(=O)C(C)(C)c3cc(C(F)(F)F)cc(C(F)(F)F)c3)cnc21` [Example 21, 2-(3,5-Bis-trifluoromethyl-phenyl)-N-[1-ethyl-4-(4-methyl-thiophen-3-yl)-1H-pyrazolo[3,4-b]pyridin-5-yl]-N-methyl-isobutyramide], the figures for the inhibition constant (Ki) (on human NK1 receptor; in assay [1]) were 92 nM and 1.2 nM, respectively.
With `CCn1ncc2c(-c3cc(CO)ccc3Cl)c(N(C)C(=O)C(C)(C)c3cc(C(F)(F)F)cc(C(F)(F)F)c3)cnc21` [Example 22, 2-(3,5-Bis-trifluoromethyl-phenyl)-N-[4-(2-chloro-5-hydroxymethyl-phenyl)-1-ethyl-1H-pyrazolo[3,4-b]pyridin-5-yl]-N-methyl-isobutyramide], the values for the inhibitory constant (Ki) (at human NK1 receptor; in assay [1]) were 2.5 nM and 4.8 nM, respectively.
In the case of `CCn1ncc2c(-c3ccc(C#N)cc3)c(N(C)C(=O)C(C)(C)c3cc(C(F)(F)F)cc(C(F)(F)F)c3)cnc21` [Example 23, 2-(3,5-Bis-trifluoromethyl-phenyl)-N-[4-(4-cyano-phenyl)-1-ethyl-1H-pyrazolo[3,4-b]pyridin-5-yl]-N-methyl-isobutyramide], the Ki at human NK1 receptor stood at 4.9 nM; in assay [1], 979 nM.
`CCn1ncc2c(-c3ccsc3Cl)c(N(C)C(=O)C(C)(C)c3cc(C(F)(F)F)cc(C(F)(F)F)c3)cnc21` [Example 24, 2-(3,5-Bis-trifluoromethyl-phenyl)-N-[4-(2-chloro-thiophen-3-yl)-1-ethyl-1H-pyrazolo[3,4-b]pyridin-5-yl]-N-methyl-isobutyramide]: the Ki came out at 36 nM at human NK1 receptor and 0.7 nM in assay [1].
In the case of `CCn1ncc2c(-c3ccc(F)cc3C)c(N(C)C(=O)C(C)(C)c3cc(F)cc(C(F)(F)F)c3)cnc21` [Example 26, 2-(3-fluoro-5-trifloromethyl-phenyl)-N-[1-ethyl-4-(4-fluoro-2-methyl-phenyl)-1H-pyrazolo[3,4-b]pyridin-5-yl]-N-methyl-isobutyramide], the figures for the Ki (on human NK1 receptor; in assay [1]) were 4.2 nM and 94.2 nM, respectively.
For the molecule `CCn1ncc2c(-c3ccc(F)cc3C)c(N(C)C(=O)C(C)(C)c3cc(Cl)cc(Cl)c3)cnc21` [Example 27, 2-(3,5-Dichloro-phenyl)-N-[1-ethyl-4-(4-fluoro-2-methyl-phenyl)-1H-pyrazolo[3,4-b]pyridin-5-yl]-N-methyl-isobutyramide], the values for the Ki (at human NK1 receptor; in assay [1]) were 2.6 nM and 35.1 nM, respectively.
For `Cc1cc(F)ccc1-c1c(N(C)C(=O)C(C)(C)c2cc(C(F)(F)F)cc(C(F)(F)F)c2)cnc2[nH]ncc12` [Example 28, 2-(3,5-Bis-trifluoromethyl-phenyl)-N-[4-(4-fluoro-2-methyl-phenyl)-1H-pyrazolo[3,4-b]pyridin-5-yl]-N-methyl-isobutyramide], the values for the Ki (on human NK1 receptor; in assay [1]) were 1.6 nM and 27.3 nM, respectively.
Turning to `CCn1ncc2c(-c3ccc(F)cc3C)c(N(C)C(=O)C(C)(C)c3cccc(Cl)c3)cnc21` [Example 29, 2-(3-Chloro-phenyl)-N-[1-ethyl-4-(4-fluoro-2-methyl-phenyl)-1H-pyrazolo[3,4-b]pyridin-5-yl]-N-methyl-isobutyramide], the Ki on human NK1 receptor worked out at 34.5 nM; in assay [1], 308 nM.
In the same order, the values of `CCn1ncc2c(-c3ccc(F)cc3C)c(N(C)C(=O)C(C)(C)c3cccc(C(F)(F)F)c3)cnc21` [Example 30, N-[1-Ethyl-4-(4-fluoro-2-methyl-phenyl)-1H-pyrazolo[3,4-b]pyridin-5-yl]-N-methyl-2-(3-trifluoromethyl-phenyl)-isobutyramide] are 12.4 nM and 875 nM.
Taken in the same sequence, the figures for `CC(=O)n1ncc2c(-c3ccc(F)cc3C)c(N(C)C(=O)C(C)(C)c3cc(C(F)(F)F)cc(C(F)(F)F)c3)cnc21` [Example 31, N-[1-Acetyl-4-(4-fluoro-2-methyl-phenyl)-1H-pyrazolo[3,4-b]pyridin-5-yl]-2-(3,5-bis-trifluoromethyl-phenyl)-N-methyl-isobutyramide] were 1.2 nM and 12.9 nM.
Turning to `COCC(=O)n1ncc2c(-c3ccc(F)cc3C)c(N(C)C(=O)C(C)(C)c3cc(C(F)(F)F)cc(C(F)(F)F)c3)cnc21` [Example 32, 2-(3,5-Bis-trifluoromethyl-phenyl)-N-[4-(4-fluoro-2-methyl-phenyl)-1-(2-methoxy-acetyl)-1H-pyrazolo[3,4-b]pyridin-5-yl]-N-methyl-isobutyramide], the figures for the Ki (on human NK1 receptor; in assay [1]) were 1.9 nM and 28.4 nM, respectively.
On to `Cc1cc(F)ccc1-c1c(N(C)C(=O)C(C)(C)c2cc(C(F)(F)F)cc(C(F)(F)F)c2)cnc2c1cnn2C(=O)C1CC1` [Example 33, 2-(3,5-Bis-trifluoromethyl-phenyl)-N-[1-cyclopropanecarbonyl-4-(4-fluoro-2-methyl-phenyl)-1H-pyrazolo[3,4-b]pyridin-5-yl]-N-methyl-isobutyramide], for which the Ki was 1.6 nM at human NK1 receptor and 9.9 nM in assay [1].
In the case of `Cc1cc(F)ccc1-c1c(N(C)C(=O)C(C)(C)c2cc(C(F)(F)F)cc(C(F)(F)F)c2)cnc2c1cnn2S(C)(=O)=O` [Example 36, 2-(3,5-Bis-trifluoromethyl-phenyl)-N-[4-(4-fluoro-2-methyl-phenyl)-1-methanesulfonyl-1H-pyrazolo[3,4-b]pyridin-5-yl]-N-methyl-isobutyramide], the Ki on human NK1 receptor was found to be 0.6 nM; in assay [1], 15.1 nM.
Turning to `Cc1cc(F)ccc1-c1c(N(C)C(=O)C(C)(C)c2cc(C(F)(F)F)cc(C(F)(F)F)c2)cnc2c1cnn2S(=O)(=O)N(C)C` [Example 37, 2-(3,5-Bis-trifluoromethyl-phenyl)-N-[1-dimethylsulfamoyl-4-(4-fluoro-2-methyl-phenyl)-1H-pyrazolo[3,4-b]pyridin-5-yl]-N-methyl-isobutyramide], the Ki worked out at 7.5 nM at human NK1 receptor and 78.5 nM in assay [1].
For the molecule `Cc1cc(F)ccc1-c1c(N(C)C(=O)C(C)(C)c2cc(C(F)(F)F)cc(C(F)(F)F)c2)cnc2c1cnn2CS(C)(=O)=O` [Example 38, 2-(3,5-Bis-trifluoromethyl-phenyl)-N-[4-(4-fluoro-2-methyl-phenyl)-1-methanesulfonylmethyl-1H-pyrazolo[3,4-b]pyridin-5-yl]-N-methyl-isobutyramide], the values for the Ki (on human NK1 receptor; in assay [1]) were 1.1 nM and 8 nM, respectively.
Consider `CC(=O)N(C)C1(c2ccccc2)CCN(CCC[C@]2(c3ccc(Cl)c(Cl)c3)CCCN(C(=O)c3ccccc3)C2)CC1` [SR 142,801, Osanetant], for which the “activity on positive symptoms of schizophrenia” value in assay [2] (altered behaviour, delusion, hallucinations, extreme emotions, excited motor activity, incoherent speech) is on record as “active”. The “activity in the treatment of negative symptoms of schizophrenia” value in assay [2] (depression, anhedonia, social isolation or memory and attention deficits) is “inactive”.
